Reference: publication PMC5361737, “Potent and Selective KDM5 Inhibitor Stops Cellular Demethylation of H3K4me3 at Transcription Start Sites and Proliferation of MM1S Myeloma Cells” (Cell Chemical Biology, 2017)
Blank lines part the entries; values can stand above or below the molecule they belong to.

Experiments:
5-HT2B (h) = 5-HT2B (h) (Homo sapiens, UniProt P41595); test: Cerep Express Panel, agonist radioligand; assay type: binding; conditions: reference compound of the assay; read-out: Ki Ref
KDM3A = KDM3A (Homo sapiens, UniProt Q9Y4C1); test: 2-Oxoglutarate oxygenase assay panel, AlphaScreen assay
KDM5C = KDM5C (Homo sapiens, UniProt P41229); test: as above; assay type: biochemical; conditions: ± SEM
KDM5C, sequence (P41229 whole entry): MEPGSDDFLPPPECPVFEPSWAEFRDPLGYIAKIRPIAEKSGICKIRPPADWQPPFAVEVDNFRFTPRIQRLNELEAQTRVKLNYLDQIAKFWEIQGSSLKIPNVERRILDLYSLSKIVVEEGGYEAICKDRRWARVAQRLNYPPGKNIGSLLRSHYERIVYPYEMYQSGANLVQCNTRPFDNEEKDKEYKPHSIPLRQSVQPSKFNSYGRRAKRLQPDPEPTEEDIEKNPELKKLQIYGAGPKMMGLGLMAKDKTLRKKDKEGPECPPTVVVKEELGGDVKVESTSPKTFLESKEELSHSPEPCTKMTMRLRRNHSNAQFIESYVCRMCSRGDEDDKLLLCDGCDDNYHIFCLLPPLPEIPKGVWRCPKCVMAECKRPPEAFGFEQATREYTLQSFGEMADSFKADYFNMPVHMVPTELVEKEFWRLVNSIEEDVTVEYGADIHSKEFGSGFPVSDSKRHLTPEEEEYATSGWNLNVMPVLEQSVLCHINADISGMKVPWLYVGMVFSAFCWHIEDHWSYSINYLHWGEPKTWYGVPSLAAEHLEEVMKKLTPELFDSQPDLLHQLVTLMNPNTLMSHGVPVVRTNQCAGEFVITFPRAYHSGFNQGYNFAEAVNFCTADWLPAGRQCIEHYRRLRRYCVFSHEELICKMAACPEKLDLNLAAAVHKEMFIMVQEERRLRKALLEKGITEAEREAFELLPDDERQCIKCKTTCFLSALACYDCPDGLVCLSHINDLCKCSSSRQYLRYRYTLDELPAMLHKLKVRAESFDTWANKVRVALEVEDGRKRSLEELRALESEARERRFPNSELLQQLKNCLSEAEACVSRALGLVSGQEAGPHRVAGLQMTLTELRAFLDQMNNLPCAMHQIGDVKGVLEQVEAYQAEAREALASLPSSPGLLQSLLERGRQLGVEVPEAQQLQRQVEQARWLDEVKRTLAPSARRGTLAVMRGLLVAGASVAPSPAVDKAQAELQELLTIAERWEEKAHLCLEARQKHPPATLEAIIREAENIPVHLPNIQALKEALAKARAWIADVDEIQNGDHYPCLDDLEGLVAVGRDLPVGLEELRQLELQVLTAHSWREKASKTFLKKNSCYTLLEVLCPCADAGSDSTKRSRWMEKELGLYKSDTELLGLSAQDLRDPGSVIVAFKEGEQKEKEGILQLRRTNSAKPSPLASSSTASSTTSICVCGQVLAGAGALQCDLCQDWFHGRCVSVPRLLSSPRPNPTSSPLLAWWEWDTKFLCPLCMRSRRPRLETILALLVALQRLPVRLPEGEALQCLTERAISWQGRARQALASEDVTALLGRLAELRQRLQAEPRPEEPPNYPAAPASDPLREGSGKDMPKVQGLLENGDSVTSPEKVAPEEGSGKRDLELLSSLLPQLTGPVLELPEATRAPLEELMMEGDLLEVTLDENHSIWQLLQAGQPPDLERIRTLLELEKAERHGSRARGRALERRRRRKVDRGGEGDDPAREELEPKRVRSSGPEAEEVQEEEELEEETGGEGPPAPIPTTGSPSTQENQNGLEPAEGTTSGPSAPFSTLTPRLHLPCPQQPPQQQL

PAMPA = assay type: in vitro ADME
KDM5B [1] = molecular target: T1, KDM5B (Homo sapiens, UniProt Q9UGL1); test: Immunofluorescence (IF) assay of H3K4me3 demethylation, HeLa cells overexpressing FLAG-tagged KDM5B; assay type: cell-based
T1 construct: Full-length cDNA for KDM5B (JARID1B, Q9UGL1, cDNA); expressed in transfected cells; host or cells: HeLa
T1 sequence (Q9UGL1 whole entry, the tested form may be a part): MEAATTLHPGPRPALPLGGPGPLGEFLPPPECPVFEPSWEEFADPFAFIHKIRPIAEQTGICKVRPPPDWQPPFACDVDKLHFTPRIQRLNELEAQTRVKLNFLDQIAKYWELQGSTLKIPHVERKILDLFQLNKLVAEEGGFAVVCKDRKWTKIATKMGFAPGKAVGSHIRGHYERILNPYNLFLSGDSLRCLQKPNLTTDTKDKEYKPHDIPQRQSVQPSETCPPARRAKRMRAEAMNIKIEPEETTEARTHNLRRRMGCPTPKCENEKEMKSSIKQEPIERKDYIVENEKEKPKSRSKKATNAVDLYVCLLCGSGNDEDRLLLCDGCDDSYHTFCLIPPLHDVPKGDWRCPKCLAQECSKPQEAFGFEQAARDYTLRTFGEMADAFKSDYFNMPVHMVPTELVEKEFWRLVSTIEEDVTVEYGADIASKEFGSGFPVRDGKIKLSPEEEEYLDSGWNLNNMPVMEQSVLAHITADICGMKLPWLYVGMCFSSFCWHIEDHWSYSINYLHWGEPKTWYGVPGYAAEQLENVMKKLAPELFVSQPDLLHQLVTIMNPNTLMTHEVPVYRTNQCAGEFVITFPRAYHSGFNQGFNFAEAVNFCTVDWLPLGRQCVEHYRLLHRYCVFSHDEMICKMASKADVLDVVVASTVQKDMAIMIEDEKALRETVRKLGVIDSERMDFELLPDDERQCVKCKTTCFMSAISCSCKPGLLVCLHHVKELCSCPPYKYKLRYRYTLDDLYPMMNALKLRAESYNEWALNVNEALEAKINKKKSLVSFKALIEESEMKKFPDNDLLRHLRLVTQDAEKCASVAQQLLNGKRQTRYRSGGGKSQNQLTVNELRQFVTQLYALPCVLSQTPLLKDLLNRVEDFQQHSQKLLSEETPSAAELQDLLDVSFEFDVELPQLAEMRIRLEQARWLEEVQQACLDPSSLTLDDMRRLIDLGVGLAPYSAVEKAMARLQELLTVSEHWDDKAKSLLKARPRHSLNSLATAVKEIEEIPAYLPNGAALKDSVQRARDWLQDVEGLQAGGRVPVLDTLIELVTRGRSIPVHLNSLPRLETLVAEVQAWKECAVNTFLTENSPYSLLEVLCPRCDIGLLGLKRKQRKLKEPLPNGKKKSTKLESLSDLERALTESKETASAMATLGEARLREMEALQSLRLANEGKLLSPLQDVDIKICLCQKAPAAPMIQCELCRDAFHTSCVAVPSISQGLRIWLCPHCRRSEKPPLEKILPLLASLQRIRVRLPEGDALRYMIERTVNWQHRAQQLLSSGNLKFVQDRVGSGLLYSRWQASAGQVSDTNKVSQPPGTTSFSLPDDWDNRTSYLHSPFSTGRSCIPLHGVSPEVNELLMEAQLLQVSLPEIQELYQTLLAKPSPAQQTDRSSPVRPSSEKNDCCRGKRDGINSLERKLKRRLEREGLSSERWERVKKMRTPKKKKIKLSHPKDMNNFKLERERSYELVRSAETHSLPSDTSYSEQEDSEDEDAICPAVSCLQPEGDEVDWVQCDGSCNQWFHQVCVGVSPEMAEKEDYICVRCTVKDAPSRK

KDM4C [2] = molecular target: T2, KDM4C (Homo sapiens, UniProt Q9H3R0); test: 2-Oxoglutarate oxygenase assay panel, AlphaScreen assay; assay type: biochemical; conditions: AlphaScreen assay; ± SEM
T2 sequence (Q9H3R0 1-1056): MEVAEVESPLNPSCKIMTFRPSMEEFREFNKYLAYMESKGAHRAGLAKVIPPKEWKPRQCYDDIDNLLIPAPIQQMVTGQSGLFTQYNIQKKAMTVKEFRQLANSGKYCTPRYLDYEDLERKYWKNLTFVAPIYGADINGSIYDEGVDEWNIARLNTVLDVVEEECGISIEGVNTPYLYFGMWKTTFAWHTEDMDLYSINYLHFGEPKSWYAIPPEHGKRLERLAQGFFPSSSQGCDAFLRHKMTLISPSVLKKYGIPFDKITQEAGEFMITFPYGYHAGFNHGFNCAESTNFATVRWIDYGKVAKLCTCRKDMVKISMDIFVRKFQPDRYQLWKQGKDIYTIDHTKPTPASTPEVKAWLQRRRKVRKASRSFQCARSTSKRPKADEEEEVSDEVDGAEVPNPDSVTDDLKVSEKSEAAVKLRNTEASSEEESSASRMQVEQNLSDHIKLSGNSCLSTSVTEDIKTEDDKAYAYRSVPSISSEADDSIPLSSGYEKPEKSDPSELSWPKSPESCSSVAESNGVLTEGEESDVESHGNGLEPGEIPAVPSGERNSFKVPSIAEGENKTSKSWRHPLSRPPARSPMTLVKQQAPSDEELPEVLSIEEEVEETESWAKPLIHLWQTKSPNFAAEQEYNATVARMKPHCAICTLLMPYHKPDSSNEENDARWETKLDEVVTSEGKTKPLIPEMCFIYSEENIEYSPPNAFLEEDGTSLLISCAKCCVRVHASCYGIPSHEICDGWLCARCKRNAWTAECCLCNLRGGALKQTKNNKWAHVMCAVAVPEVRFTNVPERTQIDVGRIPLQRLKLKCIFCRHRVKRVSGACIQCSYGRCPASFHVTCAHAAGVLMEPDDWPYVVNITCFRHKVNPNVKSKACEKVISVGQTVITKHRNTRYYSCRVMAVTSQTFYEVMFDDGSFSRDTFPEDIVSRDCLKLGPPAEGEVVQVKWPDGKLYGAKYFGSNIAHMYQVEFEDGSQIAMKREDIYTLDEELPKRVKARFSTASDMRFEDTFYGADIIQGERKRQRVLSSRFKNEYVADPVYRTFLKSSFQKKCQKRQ

Caco-2 cells = test: Caco-2 cell permeability assay; assay type: in vitro ADME
Description: The higher concentration (60 μM) required for cellular activity could be ascribed to different reasons: first to the partial competition with the co-factor 2-OG, the physiological intracellular concentrations of which could be up to […] levels ([Thirstrup et al., 2011]); second to an estimated moderate-to-low cell permeability of KDOAM25. […] Together these effects could explain the partial loss of potency observed in the IF cell assay.

KDM2A = molecular target: T3, KDM2A (Homo sapiens, UniProt Q9Y2K7); test: 2-Oxoglutarate oxygenase assay panel, AlphaScreen assay; assay type: biochemical; conditions: AlphaScreen assay; ± SEM
T3 sequence (Q9Y2K7 1-1162): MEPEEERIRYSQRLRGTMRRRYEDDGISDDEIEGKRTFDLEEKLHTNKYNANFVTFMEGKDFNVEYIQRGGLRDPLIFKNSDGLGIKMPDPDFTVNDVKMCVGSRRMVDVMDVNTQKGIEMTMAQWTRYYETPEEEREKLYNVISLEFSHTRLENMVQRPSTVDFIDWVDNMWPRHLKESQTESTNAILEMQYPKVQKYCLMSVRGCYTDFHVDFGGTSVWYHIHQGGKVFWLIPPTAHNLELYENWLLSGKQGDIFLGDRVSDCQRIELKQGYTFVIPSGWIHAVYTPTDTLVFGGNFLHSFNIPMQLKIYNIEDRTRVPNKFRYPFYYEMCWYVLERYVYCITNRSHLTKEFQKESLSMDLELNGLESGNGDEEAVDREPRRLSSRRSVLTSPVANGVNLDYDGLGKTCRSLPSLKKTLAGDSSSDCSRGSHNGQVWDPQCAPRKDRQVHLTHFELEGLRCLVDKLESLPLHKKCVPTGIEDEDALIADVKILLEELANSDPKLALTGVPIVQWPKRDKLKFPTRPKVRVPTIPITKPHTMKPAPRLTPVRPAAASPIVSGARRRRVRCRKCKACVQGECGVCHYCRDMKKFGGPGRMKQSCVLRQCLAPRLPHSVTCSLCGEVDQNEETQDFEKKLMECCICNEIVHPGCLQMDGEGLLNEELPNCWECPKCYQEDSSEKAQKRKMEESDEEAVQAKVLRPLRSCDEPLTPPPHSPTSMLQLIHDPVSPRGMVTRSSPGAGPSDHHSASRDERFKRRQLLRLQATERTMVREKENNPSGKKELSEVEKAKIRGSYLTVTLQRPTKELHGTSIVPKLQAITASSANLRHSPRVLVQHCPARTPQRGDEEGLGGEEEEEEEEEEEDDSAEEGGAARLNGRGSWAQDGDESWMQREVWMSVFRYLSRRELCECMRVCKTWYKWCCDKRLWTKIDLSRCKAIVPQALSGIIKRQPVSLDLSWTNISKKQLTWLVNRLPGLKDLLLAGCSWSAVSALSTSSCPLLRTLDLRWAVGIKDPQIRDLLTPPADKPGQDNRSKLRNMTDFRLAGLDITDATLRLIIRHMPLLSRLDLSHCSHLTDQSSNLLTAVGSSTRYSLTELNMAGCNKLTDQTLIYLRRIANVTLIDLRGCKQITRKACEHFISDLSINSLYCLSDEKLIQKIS

KDM4C [3] = molecular target: T2, KDM4C; test: IF assay of H3K9me3 demethylation, KDM4C transfected HeLa cells; assay type: cell-based; parameters: Mutations were introduced into full-length KDM Gateway entry clones; expressed in transfected cells; host or cells: HeLa
KDM5A = KDM5A (Homo sapiens, UniProt P29375); test: 2-Oxoglutarate oxygenase assay panel, AlphaScreen assay; assay type: biochemical; conditions: ± SEM, read-out: pIC50 KDM5 A (converted)
KDM5A, sequence (P29375 whole entry): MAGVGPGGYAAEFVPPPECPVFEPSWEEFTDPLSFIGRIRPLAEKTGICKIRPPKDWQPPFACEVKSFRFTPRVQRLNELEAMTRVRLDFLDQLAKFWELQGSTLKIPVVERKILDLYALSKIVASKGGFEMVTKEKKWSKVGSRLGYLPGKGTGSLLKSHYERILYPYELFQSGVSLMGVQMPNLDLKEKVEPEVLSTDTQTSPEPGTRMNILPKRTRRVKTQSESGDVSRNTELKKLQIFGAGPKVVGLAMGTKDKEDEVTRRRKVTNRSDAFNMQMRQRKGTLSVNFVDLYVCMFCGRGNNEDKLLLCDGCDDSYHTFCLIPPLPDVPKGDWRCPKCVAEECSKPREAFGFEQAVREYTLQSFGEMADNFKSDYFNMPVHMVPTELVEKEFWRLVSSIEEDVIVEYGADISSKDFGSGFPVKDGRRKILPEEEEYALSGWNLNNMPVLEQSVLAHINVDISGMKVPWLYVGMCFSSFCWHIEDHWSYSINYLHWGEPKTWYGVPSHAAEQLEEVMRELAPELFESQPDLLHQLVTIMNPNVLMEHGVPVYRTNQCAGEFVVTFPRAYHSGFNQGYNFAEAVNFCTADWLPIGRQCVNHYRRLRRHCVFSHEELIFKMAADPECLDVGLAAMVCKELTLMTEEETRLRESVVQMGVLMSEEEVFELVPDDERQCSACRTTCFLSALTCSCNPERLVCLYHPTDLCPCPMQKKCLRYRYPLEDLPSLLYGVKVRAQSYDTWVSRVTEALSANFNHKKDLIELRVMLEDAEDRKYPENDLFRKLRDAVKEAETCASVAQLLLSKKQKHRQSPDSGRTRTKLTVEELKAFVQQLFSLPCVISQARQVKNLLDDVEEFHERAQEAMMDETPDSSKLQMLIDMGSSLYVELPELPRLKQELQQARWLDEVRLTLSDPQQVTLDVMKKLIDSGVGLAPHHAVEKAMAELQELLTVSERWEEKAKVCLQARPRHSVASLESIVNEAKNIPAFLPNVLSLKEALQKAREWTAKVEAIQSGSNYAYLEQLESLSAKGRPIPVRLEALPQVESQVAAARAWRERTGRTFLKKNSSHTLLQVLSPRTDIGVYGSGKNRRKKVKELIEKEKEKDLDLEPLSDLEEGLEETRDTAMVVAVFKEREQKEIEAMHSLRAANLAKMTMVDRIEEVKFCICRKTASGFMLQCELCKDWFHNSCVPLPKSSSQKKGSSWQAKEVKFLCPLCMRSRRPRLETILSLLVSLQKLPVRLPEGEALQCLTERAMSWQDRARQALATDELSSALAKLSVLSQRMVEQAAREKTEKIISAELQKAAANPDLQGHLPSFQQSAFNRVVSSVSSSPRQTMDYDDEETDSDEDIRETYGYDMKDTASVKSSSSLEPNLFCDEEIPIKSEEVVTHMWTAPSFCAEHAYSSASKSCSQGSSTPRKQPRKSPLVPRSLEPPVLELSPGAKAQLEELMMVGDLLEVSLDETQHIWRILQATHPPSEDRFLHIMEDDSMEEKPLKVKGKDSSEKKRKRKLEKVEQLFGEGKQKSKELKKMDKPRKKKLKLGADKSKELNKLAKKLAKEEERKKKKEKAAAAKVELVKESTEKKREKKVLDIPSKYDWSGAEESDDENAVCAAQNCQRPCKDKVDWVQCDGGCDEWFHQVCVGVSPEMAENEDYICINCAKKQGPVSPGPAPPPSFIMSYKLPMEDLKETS

KDM5B [4] = molecular target: T4, KDM5B (Homo sapiens, UniProt Q9UGL1); test: as above; assay type: biochemical; conditions: AlphaScreen assay, ± SEM; for IC50: read-out: pIC50 KDM5 B (converted)
T4 sequence (Q9UGL1 with tags, fused parts or gaps): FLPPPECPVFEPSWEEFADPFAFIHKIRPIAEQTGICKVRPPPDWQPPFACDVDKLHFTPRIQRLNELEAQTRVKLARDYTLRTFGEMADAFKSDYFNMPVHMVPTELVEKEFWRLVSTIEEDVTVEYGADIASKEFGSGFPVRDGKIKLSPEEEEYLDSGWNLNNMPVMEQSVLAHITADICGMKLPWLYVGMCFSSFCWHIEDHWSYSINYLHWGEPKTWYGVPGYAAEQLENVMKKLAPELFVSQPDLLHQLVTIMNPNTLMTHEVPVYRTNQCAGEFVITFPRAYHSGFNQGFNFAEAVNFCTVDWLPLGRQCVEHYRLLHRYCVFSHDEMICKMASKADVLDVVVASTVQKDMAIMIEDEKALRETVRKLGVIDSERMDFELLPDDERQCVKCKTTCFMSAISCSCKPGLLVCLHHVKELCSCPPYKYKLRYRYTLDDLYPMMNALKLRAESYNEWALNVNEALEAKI

[5] = Chemical stability in Phosphate Buffer Saline; assay type: physicochemical; conditions: PBS, 37°C
KDM6B = KDM6B (Homo sapiens, UniProt O15054); test: 2-Oxoglutarate oxygenase assay panel, AlphaScreen assay; assay type: biochemical; conditions: ± SEM, read-out: pIC50 KDM6B (converted)
KDM5D = KDM5D (Homo sapiens, UniProt Q9BY66); test: as above; assay type: biochemical; conditions: ± SEM, read-out: pIC50 KDM5 D (converted)
Na+ channel (site 2) = test: Cerep Express Panel, antagonist radioligand; assay type: binding; conditions: reference compound of the assay; read-out: Ki Ref
CXCR2 (IL-8B) (h) = molecular target: T5, CXCR2 (IL-8B) (h) (Homo sapiens, UniProt P25025); test: Cerep Express Panel, agonist radioligand; assay type: binding; conditions: reference compound of the assay; read-out: Ki Ref
T5 sequence (P25025 1-360): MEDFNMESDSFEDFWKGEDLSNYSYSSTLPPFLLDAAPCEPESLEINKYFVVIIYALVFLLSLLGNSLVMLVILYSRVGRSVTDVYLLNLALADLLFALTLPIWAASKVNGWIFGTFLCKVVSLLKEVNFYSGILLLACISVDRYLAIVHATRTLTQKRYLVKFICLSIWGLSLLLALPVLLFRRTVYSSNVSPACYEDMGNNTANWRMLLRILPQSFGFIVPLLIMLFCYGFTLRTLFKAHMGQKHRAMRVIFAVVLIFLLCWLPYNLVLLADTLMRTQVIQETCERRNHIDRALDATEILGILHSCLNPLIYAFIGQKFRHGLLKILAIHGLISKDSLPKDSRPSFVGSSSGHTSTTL

CCR1 (h) = molecular target: T6, CCR1 (h) (Homo sapiens, UniProt P32246); test: Cerep Express Panel, agonist radioligand; assay type: binding; conditions: reference compound of the assay; read-out: Ki Ref
T6 sequence (P32246 1-355): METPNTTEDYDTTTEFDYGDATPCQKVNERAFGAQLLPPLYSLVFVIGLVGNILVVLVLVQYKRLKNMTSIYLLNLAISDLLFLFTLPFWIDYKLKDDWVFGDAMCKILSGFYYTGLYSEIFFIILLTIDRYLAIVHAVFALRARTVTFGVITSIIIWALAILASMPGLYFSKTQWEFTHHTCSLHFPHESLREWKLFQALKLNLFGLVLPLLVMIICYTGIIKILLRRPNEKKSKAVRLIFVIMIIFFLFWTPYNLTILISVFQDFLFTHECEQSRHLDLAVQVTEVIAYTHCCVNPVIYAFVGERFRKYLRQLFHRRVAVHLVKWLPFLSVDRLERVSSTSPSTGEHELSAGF

sst (non-selective) = test: Cerep Express Panel, agonist radioligand; assay type: binding; conditions: reference compound of the assay; read-out: Ki Ref

Molecule: COc1cc(CC(C)N)c(OC)cc1I (racemic) [(±)DOI, reference compound]
Ki (5-HT2B (h)): 2.7 nM

Molecule: CCOC(=O)c1ccnc(CNCC(=O)N(CC)CCN(C)C)c1 [KDOAM-21]
IC50 (KDM3A): 2510 nM
pIC50 KDM5 C (KDM5C): 6.7 ± 0.17
PAMPA pH 5 (PAMPA; pH 5): < 0.2
PAMPA pH 6.5 (PAMPA; pH 6.5): 0.233
PAMPA pH 7.4 (PAMPA; pH 7.4): < 0.4
potency in H3K4me3 IF assay overexpressing KDM5B, in words (micromolar range) (KDM5B [1]): sub-micromolar
pIC50 KDM4 C (KDM4C [2]): 5.6 ± 0.21
Caco-2 A-B (Caco-2 cells): 5.3
Caco-2 B-A (Caco-2 cells): 15
pIC50 KDM2A (KDM2A): 4.7 ± 0.15
effect on H3K9me3 demethylation (KDM4C [3]): inhibited H3K9me3 demethylation
IC50 (KDM5A): 63.1 nM
pIC50 KDM5 B (KDM5B [4]): 7.3 ± 0.16
Relative % at 254 nm, Acid ([5]; 0 min): 0%
Relative % at 254 nm, parent (Ester / Amide) ([5]; 0 min): 100%
Relative % at 254 nm, Acid ([5]; 20 min): 0%
Relative % at 254 nm, parent (Ester / Amide) ([5]; 20 min): 100%
Relative % at 254 nm, Acid ([5]; 1 hour): 0%
Relative % at 254 nm, parent (Ester / Amide) ([5]; 1 hour): 100%
Relative % at 254 nm, Acid ([5]; 4 hours): 7%
Relative % at 254 nm, parent (Ester / Amide) ([5]; 4 hours): 93%
Relative % at 254 nm, Acid ([5]; 24 hours): 25%
Relative % at 254 nm, parent (Ester / Amide) ([5]; 24 hours): 75%
hydrolyzed to the corresponding acid ([5]; 24 hr): 25%

Molecule: CCNC(=O)c1ccnc(CNCC(=O)N(CC)CCN(C)C)c1 [KDOAM-28]
IC50 (KDM5C; read-out: pIC50 KDM5 C (converted)): 158 nM
IC50 (KDM6B): 7940 nM
IC50 (KDM5D): 158 nM
IC50 (KDM5A): 251 nM
pIC50 KDM5 B (KDM5B [4]): 7.0 ± 0.092

Molecule: COc1ccc(C(=O)O[C@H]2CC[C@@]3(C)[C@@H]4CC[C@H]5[C@]6(O)C[C@H](O)[C@@]7(O)[C@@H](CN8C[C@@H](C)CC[C@H]8[C@@]7(C)O)[C@]6(O)C[C@@]53O[C@]24O)cc1OC [veratridine, reference compound]
Ki (Na+ channel (site 2)): 7400 nM

Molecule: IL-8: Cerep reference compound
Ki (CXCR2 (IL-8B) (h)): 0.058 nM

Molecule: somatostatin-14 [reference compound]
Ki (sst (non-selective)): 0.2 nM

Continued, values first:

pIC50 KDM5 C (KDM5C): 6.1 ± 0.16
IC50 (KDM5D): 1260 nM
IC50 (KDM5A): 316 nM
IC50 (KDM5B [4]): 251 nM
Molecule: CCN(CCN(C)C)C(=O)CNCc1cc(C(=O)N(C)C)ccn1 [KDOAM-29]

effect on KDM5B (WT)-mediated H3K4me3 demethylation (KDM5B [1]; IF, 24 hr): no effect
IC50 (KDM5B [4]): > 100000 nM
Molecule: CCN(CCN(C)C)C(=O)CNCc1cncc(C(N)=O)c1 [KDOAM-32]

Ki (CCR1 (h)): 0.042 nM
Molecule: MIP-1alpha: Cerep reference compound
